Test results: publication PMC10098121, “Amphipathic barbiturates as marine product mimics with cytolytic and immunogenic effects on head and neck squamous cell carcinoma cell lines” (Frontiers in Pharmacology, 2023)

Experiments:
Format in all cases: cell-based, human
[1] = system: HSC-3 cells; assay: Live cell apoptosis assay (caspase 3/7, proliferation); details: HSC-3, 24 h; MPMs 5 or 10 µM, cisplatin 10 µM
Experimental: A black-walled 96-well plate (#6005182, PerkinElmer, Waltham, MA, United States) was coated with 50 µl myogel (0.5 mg/ml) per well. The next day, HSC-3 and UT-SCC-24A cells were stained with CellTrace Far Red (Invitrogen, Carlsbad, CA, USA) by resuspending 500,000 cells in 500 µl PBS and adding 0.5 µl of the dye before incubating the cells at 37°C for 20 min. Next, 2.5 ml of complete media was added to the cells, and they were incubated for another 5 min. The cells were then centrifuged and resuspended in complete media. The media remaining in the wells of the 96-well plate after myogel coating was removed and the cells were seeded with 1,000 cells/well in 100 µl of media. The cells were left to adhere overnight, and the following day, the media was replaced with 100 µl of media containing the Incucyte® caspase-3/7 green dye for apoptosis (Sartorius, Göttingen, Germany) (diluted 1:1,000), as well as 5 or 10 µM of the MPMs or 10 µM cisplatin. Control wells only contained media and the caspase-3/7 green dye. The plate was placed in the Incucyte S3 (Sartorius) and imaged at ×10 magnification every 2 hours for 24 h in total. Each condition had triplicate wells, and four images were taken per well. The experiment was conducted three times. The Incucyte software was used to analyze the area of red fluorescence (proliferation) and number of green and red objects (apoptotic cells).

[2] = system: cell surface calreticulin on HSC-3 cells; assay: Flow cytometric detection of cell surface calreticulin; details: HSC-3, 24 h; cisplatin 50 µM, MPMs 5-20 µM; vs untreated
Experimental: This procedure was based on a published method ([Liu et al., 2020]), but was performed with some modifications. Briefly, HSC-3 and UT-SCC-24A cells were seeded, 300,000 cells/well, in 6-well plates and left to adhere overnight. The media was then removed and replaced by 2 ml complete DMEM/F-12 containing 5, 7.5, 10 or 20 µM of MPM-2:0, MPM-6:0, MPM-3:2 or MPM-4:2, or 50 µM cisplatin. Some cells were left untreated. The cells were then incubated for 24 h. Next, the cell supernatants were collected before the cells were trypsinized and spun down with the supernatants. The cells were then washed in PBS before being incubated with the viability dye Zombie Violet (#423114, BioLegend, San Diego, CA, United States) diluted 1:500 in PBS for 20 min. Next, the cells were incubated with an anti-calreticulin antibody (#ab2907, Abcam) diluted 1:100 in FACS buffer (2%BSA in PBS) for 30 min. The cells were then fixed in 4% formaldehyde for 15 min and washed twice in FACS buffer before being incubated with the secondary antibody (#A11034, Thermo Fisher Scientific) diluted 1:250 in FACS buffer for 30 min. The cells were washed in FACS buffer and analyzed on a LSR Fortessa (BD Biosciences) within 1 week. Analyses were performed in FlowJo™ v.10 (https://www.flowjo.com/).

[3] = system: phosphorylated eIF2α in HSC-3 cells; assay: Western blot for phosphorylated eIF2α; details: HSC-3, 24 h; cisplatin 50 µM, MPMs 5-20 µM
Experimental: (§1) HSC-3 and UT-SCC-24A cells were seeded, 300,000 cells/well, in 6-well plates and left to adhere overnight. The media was then removed and replaced by 2 ml complete DMEM/F-12 containing 5, 7.5, 10 or 20 µM of MPM-2:0, MPM-6:0, MPM-3:2 or MPM-4:2, or 50 µM cisplatin. Some cells were left untreated. The cells were then incubated for 24 h. Next, the cell supernatants were collected before the cells were trypsinized and spun down with the supernatants. The cells were then washed twice in ice-cold PBS before being resuspended in 100 µl RIPA buffer (25 mM Tris-HCl (pH 7,6), 150 mM NaCl, 0.1% SDS, 0.5% sodium deoxycholate, 1% Triton X-100) containing 1% protease inhibitor (SIGMAFASTTM, #S8830, Sigma-Aldrich) and incubated on a shaker for 30 min. Next, the samples were sonicated and then kept at −70°C before being used. The samples were kept on ice or at 4°C during the whole procedure. The samples were thawed on ice and the protein concentration was measured using the DC Protein Assay kit (#5000111, Bio-Rad Laboratories, Hercules, CA, United States). 8 μg of protein was taken from each sample and mixed with DTT (final concentration 50 mM) and 20% 5 × sample buffer (250 mM Tris-HCl pH 6.8, 10% SDS, 20% Glycerol, 0.01% Bromphenol Blue). […]

[4] = system: phosphorylated eIF2α in UT-SCC-24A cells; assay: Western blot for phosphorylated eIF2α; details: 24 h, cisplatin 50 µM, MPMs 5-20 µM
Experimental: as §1

N.N.[Cl][Pt][Cl] [Cisplatin, cisplatin, reference compound]
activation of caspase 3/7 / apoptosis (in words) [1]: only induced apoptosis in a minority of HSC-3 cells | proliferation (area of red fluorescence, in words) [1]: inhibited proliferation in HSC-3 cells | cell surface expression of calreticulin (in words) [2]: did not induce any cell surface expression of calreticulin | phosphorylation of eIF2α (in words) [3]: induced high levels of phosphorylated eIF2α | phosphorylation of eIF2α (in words) [4]: induced high levels of phosphorylated eIF2α
